Read-outs that look alike come from different tables or passages of the source.
Legend:
[1] = tested on: RPEMYC^H2B-GFP cells; assay: Mechanism-informed phenotypic screening assay (mitotic arrest, polyploidy; GE IN-Cell Analyzer 2000); assay type: cell-based; conditions: 20 nM to 20 μM, 24, 48 or 72 hours, read-out: Mitotic Arrest (≥5%)
[2] = tested on: RPEMYC^H2B-GFP cells; assay: as above; assay type: cell-based; conditions: 20 nM to 20 μM, 24, 48 or 72 hours; for minimal effective concentration: read-out: Min. Effective conc. for polyploidy (≥5%)
Protocol: We have Previously Developed a Mechanism-Informed Phenotypic Screening Assay to identify novel antimitotic agents (Li et al. 2019). Equipped with a prior understanding of the versatile functions of the chromosomal passenger protein (CPP) complex in orchestrating karyokinesis and cytokinesis, the screening assay is to score for phenotypes typically seen when the CPP complex is disabled. Specifically, the parameters for a positive hit are a temporary elevation of mitotic index (MI) at 24 hours of drug treatment and an accumulation of polyploid cells at 48 hours of drug treatment, indicative of mitotic arrest and cytokinetic failure respectively. These parameters exclude compounds that elicit only a prolonged arrest of cells in mitosis, a phenotype typically provoked by spindle toxins. The screening procedure is briefly summarized here. RPEMYC^H2B-GFP cells engineered to express a Histone 2B-EGFP fusion protein were passaged as batches of 96-well plates, 18-24 hours before exposure to the chemical compounds of the present disclosure at concentrations from 20 nM to 20 μM. At 24, 48 or 72 hours after initiation of treatment, cells were analyzed for either an arrest in mitosis or a change in DNA content by GE IN-Cell Analyzer 2000. As set forth in table 2 below, a value of greater than or equal to […] and less than or equal to 1.0 μM is marked e “A”; a value greater than […] and less than or equal to 10.0 μM is marked “B”; a value greater than 10.0 μM and less than or equal to 30.0 μM is marked “C”; and a value greater than 30.0 μM is marked “D.”

COc1cc(Oc2ncccc2-c2ccncc2)cc(C(=O)N(C)C)c1 [Compound 5, 3-([3,4′-bipyridin]-2-yloxy)-5-methoxy-N,N-dimethylbenzamide] gave a minimal effective concentration [1] of 0.001 to 10 µM and a minimal effective concentration [2] of 0.001 to 10 µM.
CCOc1cc(Oc2ncccc2-c2ccncc2)cc(C(=O)NC)c1 [Compound 6, 3-([3,4′-bipyridin]-2-yloxy)-5-ethoxy-N-methylbenzamide] gave a minimal effective concentration [1] of 1 µM and a minimal effective concentration [2] of 1 µM.
For COc1cc(Oc2ncccc2-c2ccncc2)cc(-c2nc(C)no2)c1 [Compound 11, 5-(3-([3,4′-bipyridin]-2-yloxy)-5-methoxyphenyl)-3-methyl-1,2,4-oxadiazole], the minimal effective concentration [1] was 1 µM and the minimal effective concentration [2] was 1 µM.
Work on COc1cc(OC)cc(Oc2nccnc2-c2ccncc2)c1 [Compound 15, 2-(3,5-dimethoxyphenoxy)-3-(pyridin-4-yl)pyrazine] yielded a minimal effective concentration [1] of 1 µM and a minimal effective concentration [2] of 1 µM.
In the case of CNC(=O)c1cc(OC)cc(Oc2nccnc2-c2ccncc2)c1 [Compound 18, 3-methoxy-N-methyl-5-((3-(pyridin-4-yl)pyrazin-2-yl)oxy)benzamide], the minimal effective concentration [1] was 1 µM and the minimal effective concentration [2] was 1 µM.
For Cc1noc(-c2cc(Oc3ncccc3-c3ccnc(N)n3)cc(-c3nc(C)no3)c2)n1 [Compound 22, 4-(2-(3,5-bis(3-methyl-1,2,4-oxadiazol-5-yl)phenoxy)pyridin-3-yl)pyrimidin-2-amine], the minimal effective concentration [1] was > 30 µM and the minimal effective concentration [2] was > 30 µM.
In the case of COc1cc(Oc2ncccc2-c2ccnc(N)n2)cc(C(=O)O)c1 [Compound 24, 3-((3-(2-aminopyrimidin-4-yl)pyridin-2-yl)oxy)-5-methoxybenzoic acid], the minimal effective concentration [1] was > 30 µM and the minimal effective concentration [2] was > 30 µM.
Compound CNC(=O)c1cc(OC)cc(Oc2ncccc2-c2ccnc(N)n2)c1 [Compound 25, 3-((3-(2-aminopyrimidin-4-yl)pyridin-2-yl)oxy)-5-methoxy-N-methylbenzamide] has a minimal effective concentration [1] of 1 µM and a minimal effective concentration [2] of 1 µM.
Work on COc1cc(OC)cc(Oc2ncccc2-c2ccnc(Cl)c2)c1 [Compound 44, 2′-chloro-2-(3,5-dimethoxyphenoxy)-3,4′-bipyridine] yielded a minimal effective concentration [1] of 1 µM and a minimal effective concentration [2] of 1 µM.
COc1cc(OC)cc(Oc2ncccc2-c2cccnc2)c1 [Compound 47, 2-(3,5-dimethoxyphenoxy)-3,3′-bipyridine] gave a minimal effective concentration [1] of 1 µM and a minimal effective concentration [2] of 1 µM.
Compound COc1cc(OC)cc(Oc2nccnc2-c2cccnc2)c1 [Compound 50] has a minimal effective concentration [1] of 1 µM and a minimal effective concentration [2] of 1 µM.
With COc1cc(OC)cc(Oc2ncccc2-c2ccccc2)c1 [Compound 55, 2-(3,5-dimethoxyphenoxy)-3-phenylpyridine] the minimal effective concentration [1] was 0.001 to 10 µM and the minimal effective concentration [2] was 0.001 to 10 µM.
For COC(=O)c1cc(Oc2ncccc2-c2ccccc2)cc(C(=O)OC)c1 [Compound 56, dimethyl 5-((3-phenylpyridin-2-yl)oxy)isophthalate], the minimal effective concentration [1] was 1 µM and the minimal effective concentration [2] was 1 µM.
In the case of COc1cc(OC)cc(Oc2nccnc2-c2ccccc2)c1 [Compound 57, 2-(3,5-dimethoxyphenoxy)-3-phenylpyrazine], the minimal effective concentration [1] was 0.001 to 10 µM and the minimal effective concentration [2] was 0.001 to 10 µM.
Compound COc1cc(OC)cc(Oc2ncccc2-c2cc(OC)cc(OC)c2)c1 [Compound 58, 2-(3,5-dimethoxyphenoxy)-3-(3,5-dimethoxyphenyl)pyridine] has a minimal effective concentration [1] of 1 µM and a minimal effective concentration [2] of 1 µM.
In the case of COc1cc(OC)cc(Oc2nccnc2-c2cc(OC)cc(OC)c2)c1 [Compound 59, 2-(3,5-dimethoxyphenoxy)-3-(3,5-dimethoxyphenyl)pyrazine], the minimal effective concentration [1] was 0.001 to 10 µM and the minimal effective concentration [2] was 0.001 to 10 µM.
COc1cc(OC)cc(Oc2ncccc2-c2cc(OC)ncn2)c1 [Compound 60, 4-(2-(3,5-dimethoxyphenoxy)pyridin-3-yl)-6-methoxypyrimidine] was tested, and the minimal effective concentration [1] was 1 µM and the minimal effective concentration [2] was 1 µM.
Compound COc1cc(OC)cc(Oc2ncccc2-c2ccnc(N)c2)c1 [Compound 61, 2-(3,5-dimethoxyphenoxy)-[3,4′-bipyridin]-2′-amine] has a minimal effective concentration [1] of 1 µM and a minimal effective concentration [2] of 1 µM.
For COc1cc(OC)cc(Oc2ncccc2-c2ccnc(SC)n2)c1 [Compound 62, 4-(2-(3,5-dimethoxyphenoxy)pyridin-3-yl)-2-(methylthio)pyrimidine], the minimal effective concentration [1] was 0.001 to 10 µM and the minimal effective concentration [2] was 0.001 to 10 µM.
In the case of CNc1cc(-c2cccnc2Oc2cc(OC)cc(OC)c2)ncn1 [Compound 64, 6-(2-(3,5-dimethoxyphenoxy)pyridin-3-yl)-N-methylpyrimidin-4-amine], the minimal effective concentration [1] was 0.001 to 10 µM and the minimal effective concentration [2] was 0.001 to 10 µM.
Work on COc1cc(OC)cc(Oc2ncccc2-c2ccncc2N)c1 [Compound 65, 2-(3,5-dimethoxyphenoxy)-[3,4′-bipyridin]-3′-amine] yielded a minimal effective concentration [1] of 0.001 to 10 µM and a minimal effective concentration [2] of 0.001 to 10 µM.
With CNC(=O)c1cc(OC)cc(Oc2ncccc2-c2ccnc(C(F)(F)F)c2)c1 [Compound 66, 3-methoxy-N-methyl-5-((2′-(trifluoromethyl)-[3,4′-bipyridin]-2-yl)oxy)benzamide] the minimal effective concentration [1] was 1 µM and the minimal effective concentration [2] was 1 µM.
In the case of CCOc1cc(Oc2ncccc2-c2ccnc(C(F)(F)F)c2)cc(C(=O)NC)c1 [Compound 67, 3-ethoxy-N-methyl-5-((2′-(trifluoromethyl)-[3,4′-bipyridin]-2-yl)oxy)benzamide], the minimal effective concentration [1] was 0.001 to 10 µM and the minimal effective concentration [2] was 0.001 to 10 µM.
In the case of COc1cc(OC)cc(Oc2cncc(-c3ccccc3)n2)c1 [Compound 81, 2-(3,5-dimethoxyphenoxy)-6-phenylpyrazine], the minimal effective concentration [1] was 0.001 to 10 µM and the minimal effective concentration [2] was 0.001 to 10 µM.
In the case of COc1cc(OC)cc(Oc2cncc(-c3cccnc3)n2)c1 [Compound 82, 2-(3,5-dimethoxyphenoxy)-6-(pyridin-3-yl)pyrazine], the minimal effective concentration [1] was 0.001 to 10 µM and the minimal effective concentration [2] was 0.001 to 10 µM.
With COc1cc(OC)cc(Oc2cncc(-c3cccc(F)c3)n2)c1 [Compound 83, 2-(3,5-dimethoxyphenoxy)-6-(3-fluorophenyl)pyrazine] the minimal effective concentration [1] was > 30 µM and the minimal effective concentration [2] was > 30 µM.
COc1cc(OC)cc(Oc2ncccc2-c2ccnc(Cl)n2)c1 [Compound 84, 2-chloro-4-(2-(3,5-dimethoxyphenoxy)pyridin-3-yl)pyrimidine] was tested, and the minimal effective concentration [1] was 10 to 30 µM and the minimal effective concentration [2] was > 30 µM.
Work on CCOCCOc1cc(-c2cccnc2Oc2cc(OC)cc(C(=O)NC)c2)ccn1 [Compound 85, 3-((2′-(2-ethoxyethoxy)-[3,4′-bipyridin]-2-yl)oxy)-5-methoxy-N-methylbenzamide] yielded a minimal effective concentration [1] of 1 µM and a minimal effective concentration [2] of 1 µM.
For CCOCCOc1cc(-c2cccnc2Oc2cc(OC)cc(-n3cccn3)c2)ccn1 [Compound 86, 2′-(2-ethoxyethoxy)-2-(3-methoxy-5-(1H-pyrazol-1-yl)phenoxy)-3,4′-bipyridine], the minimal effective concentration [1] was 1 µM and the minimal effective concentration [2] was 1 µM.
With COc1cc(NC(C)=O)cc(Oc2ncccc2-c2ncccn2)c1 [Compound 93, N-(3-methoxy-5-((3-(pyrimidin-2-yl)pyridin-2-yl)oxy)phenyl)acetamide] the “Min. Effective conc. for polyploidy (≥5%)” value [2] was “inactive” and the “Mitotic Arrest (≥5%)” value [2] was “inactive”.
